Measurements taken from patent publication US8034314B2, “Photoreactive compound specifically binding to calcium binding proteins” (priority 2004, dated 2011).

Experiments:
[1] = molecular target: T1, ryanodine receptor (RyR) / Ca2+-release channel (Oryctolagus cuniculus, UniProt P11716); experiment: [3H]ryanodine binding to SR membranes; parameters: species or system rabbit; settings: no UV; mean ± SEM of 3 to 5 experiments
T1 construct: from tissue; host or cells: rabbit fast twitch skeletal muscle SR membranes
Protocol: (§1) Sarcoplasmic reticulum (SR) membranes were prepared from rabbit fast twitch skeletal muscle as described by Saito [Saito et al.: J. Cell Biol. 99 (1984) 875-85]. Mitochondria were isolated from rat liver as described by us previously [Gincel D. et al.: Biochem J. 358 (2001) 147-55]. VDAC was purified by a method developed in our laboratory, using columns of hydroxyapatite and reactive red agarose [Gincel D. et al.: J. Bioenerget. Biomembr. 32 (2000) 571-83].
For the determination of [^3H]ryanodine binding, SR membranes were incubated for 20-60 min at 37° C. in a standard binding solution containing 1M NaCl, 20 mM MOPS (pH 7.4), 50 μM free Ca^2+ and 20 nM [^3H]ryanodine. Unbound ryanodine was separated from protein-bound ryanodine by vacuum filtration of the sample through nitrocellulose filters (0.45 μm), followed by two washes with 4 ml ice-cold buffer containing 0.2 M NaCl, 10 mM MOPS (pH 7.4) and 50 μM CaCl2. The retained radioactivity in the dried filters was determined by liquid scintillation counting. Specific binding of [^3H]ryanodine was defined as the difference between the binding in the presence of 20 nM [^3H]ryanodine and in the presence of 20 μM unlabeled ryanodine.
(§2) The hexavalent RuR and the trivalent Ru360 have been employed in various studies as inhibitors of Ca^2+-dependent reactions. As shown here, even with no photoactivation, AzRu, in contrast to RuR and Ru360, was effective in inhibiting the SR Ca^2+-pump (Table 3). […] This may open the way to inhibit other Ca^2+-dependent activities that are not sensitive to RuR, such as the plasma membrane Ca^2+-ATPase. […] RuR was employed to improve mitochondrial production in ischemic reperfused pig myocardium, was employed in the nervous system to follow neuronal death progress and can act as an anti-oxidant in certain conditions. Considering the potent activity of AzRu in RuR-insensitive reactions (see Table 3), its applications in various biological studies should be explored. Ca^2+ accumulation in SR and mitochondria was assayed as described above in the absence and presence of different concentrations of RuR (0.05-100 μM), Ru360 (0.01-100 μM) or AzRu (0.1-100 μM). The concentration required for 50% inhibition (IC50) was derived from the plot of Ca^2+ accumulation activity or ryanodine binding as a function of the reagent concentration. The results are the mean±SEM of 3 to 5 experiments (Table 3).

[2] = system: mitochondrial uniporter (Ca2+ uptake in mitochondria); experiment: Ca2+ uptake/accumulation in isolated mitochondria; type: biochemical, rat; settings: no UV; mean ± SEM of 3 to 5 experiments
Protocol: as §1
Ca^2+-accumulation in freshly prepared mitochondria (0.5 mg/ml) was assayed for 1 to 20 minutes at 30° C. in the presence of 225 mM mannitol, 75 mM sucrose, 120 μM CaCl2 (containing 3×10^4 cpm/nmol ^45Ca^2+), 5 mM HEPES/KOH pH 7.0, and 5 mM succinate with 0.1 mM Pi, or 4 mM MgCl2 with 3 mM ATP. The Ca^2+-uptake was terminated by rapid Millipore filtration, followed by a wash with 5 ml of 0.15 M KCl. The Ca^2+-accumulation in SR was determined as described previously [Shoshan-Barmatz V. & Shaineberg A.: Biochim. Biophys. Acta 1065 (1991) 82-8]. Electron transport from succinate to cytochrome c was described in above cited article [Gincel D. et al.: J. Bioenerget. Biomembr. 32 (2000) 571-83].
The effect of AzRu on mitochondrial process of electron transport from the donor succinate to the acceptor cytochrome c was characterized as described above. Although said electron transfer involves several dozens electron transfer carriers, this reaction was not affected by azido-ruthenium of this invention.
as §2

[3] = system: U-937 human monocytic cell line; experiment: STS-induced apoptotic cell death of U-937 cells (acridine orange/ethidium bromide staining); type: cell-based; settings: STS 1.25 μM, no AzRu
Protocol: The U-937 human monocytic cell line was grown under an atmosphere of 95% air and 5% CO2 in RPMI 1640 supplemented with 10% fetal calf serum (FCS), 1 mM L-glutamine, 100 U/ml penicillin, and 100 μg/ml streptomycin. Cells were plated at a density of 5.4×10^4 cells/cm^2 in 24-well plates and then incubated with or without AzRu for 18 hr before exposure to 1.25 μM staurosporine (STS) to induce apoptosis. Cell viability was analyzed 5 and 7 hrs after STS addition by staining with 100 μg/ml acridine orange (AcOr) and 100 μg/ml ethidium bromide (EtBr) in PBS. The cells were then visualized by fluorescence microscopy (Olympus IX51) and images were recorded on an Olympus DP70 camera, using an SWB filter.
AzRu had no effect on the viability of the cells that were not exposed to STS. In FIG. 13 A, U-937 cells were incubated without (a, c) or with AzRu (10 μM) (b,d) for 18 hrs and thereafter were exposed to STS (1.25 μM) (c and d). After five hours the cells were stained with acridine orange and ethidium bromide. Arrows indicate cells in early apoptotic state, represented as degraded nucleus, but with intact cell membrane (stained by acridine orange). Arrowheads indicate a late apoptotic state, as shown by the presence of a degraded nucleus (stained by both acridine orange and ethidium bromide). Scale bar, 20 μm. In FIG. 13 B, quantitative analysis of apoptotic cell death in control cells and cells exposed to AzRu was assessed 5 and 7 hr after their exposure to STS (1.25 by ANOVA and t-test. P<0.001 was considered statistically significant (***). Data are the means±SEM, n=3. In each independent experiment, approximately 200 cells were counted for each treatment.

T1 sequence (P11716 whole entry): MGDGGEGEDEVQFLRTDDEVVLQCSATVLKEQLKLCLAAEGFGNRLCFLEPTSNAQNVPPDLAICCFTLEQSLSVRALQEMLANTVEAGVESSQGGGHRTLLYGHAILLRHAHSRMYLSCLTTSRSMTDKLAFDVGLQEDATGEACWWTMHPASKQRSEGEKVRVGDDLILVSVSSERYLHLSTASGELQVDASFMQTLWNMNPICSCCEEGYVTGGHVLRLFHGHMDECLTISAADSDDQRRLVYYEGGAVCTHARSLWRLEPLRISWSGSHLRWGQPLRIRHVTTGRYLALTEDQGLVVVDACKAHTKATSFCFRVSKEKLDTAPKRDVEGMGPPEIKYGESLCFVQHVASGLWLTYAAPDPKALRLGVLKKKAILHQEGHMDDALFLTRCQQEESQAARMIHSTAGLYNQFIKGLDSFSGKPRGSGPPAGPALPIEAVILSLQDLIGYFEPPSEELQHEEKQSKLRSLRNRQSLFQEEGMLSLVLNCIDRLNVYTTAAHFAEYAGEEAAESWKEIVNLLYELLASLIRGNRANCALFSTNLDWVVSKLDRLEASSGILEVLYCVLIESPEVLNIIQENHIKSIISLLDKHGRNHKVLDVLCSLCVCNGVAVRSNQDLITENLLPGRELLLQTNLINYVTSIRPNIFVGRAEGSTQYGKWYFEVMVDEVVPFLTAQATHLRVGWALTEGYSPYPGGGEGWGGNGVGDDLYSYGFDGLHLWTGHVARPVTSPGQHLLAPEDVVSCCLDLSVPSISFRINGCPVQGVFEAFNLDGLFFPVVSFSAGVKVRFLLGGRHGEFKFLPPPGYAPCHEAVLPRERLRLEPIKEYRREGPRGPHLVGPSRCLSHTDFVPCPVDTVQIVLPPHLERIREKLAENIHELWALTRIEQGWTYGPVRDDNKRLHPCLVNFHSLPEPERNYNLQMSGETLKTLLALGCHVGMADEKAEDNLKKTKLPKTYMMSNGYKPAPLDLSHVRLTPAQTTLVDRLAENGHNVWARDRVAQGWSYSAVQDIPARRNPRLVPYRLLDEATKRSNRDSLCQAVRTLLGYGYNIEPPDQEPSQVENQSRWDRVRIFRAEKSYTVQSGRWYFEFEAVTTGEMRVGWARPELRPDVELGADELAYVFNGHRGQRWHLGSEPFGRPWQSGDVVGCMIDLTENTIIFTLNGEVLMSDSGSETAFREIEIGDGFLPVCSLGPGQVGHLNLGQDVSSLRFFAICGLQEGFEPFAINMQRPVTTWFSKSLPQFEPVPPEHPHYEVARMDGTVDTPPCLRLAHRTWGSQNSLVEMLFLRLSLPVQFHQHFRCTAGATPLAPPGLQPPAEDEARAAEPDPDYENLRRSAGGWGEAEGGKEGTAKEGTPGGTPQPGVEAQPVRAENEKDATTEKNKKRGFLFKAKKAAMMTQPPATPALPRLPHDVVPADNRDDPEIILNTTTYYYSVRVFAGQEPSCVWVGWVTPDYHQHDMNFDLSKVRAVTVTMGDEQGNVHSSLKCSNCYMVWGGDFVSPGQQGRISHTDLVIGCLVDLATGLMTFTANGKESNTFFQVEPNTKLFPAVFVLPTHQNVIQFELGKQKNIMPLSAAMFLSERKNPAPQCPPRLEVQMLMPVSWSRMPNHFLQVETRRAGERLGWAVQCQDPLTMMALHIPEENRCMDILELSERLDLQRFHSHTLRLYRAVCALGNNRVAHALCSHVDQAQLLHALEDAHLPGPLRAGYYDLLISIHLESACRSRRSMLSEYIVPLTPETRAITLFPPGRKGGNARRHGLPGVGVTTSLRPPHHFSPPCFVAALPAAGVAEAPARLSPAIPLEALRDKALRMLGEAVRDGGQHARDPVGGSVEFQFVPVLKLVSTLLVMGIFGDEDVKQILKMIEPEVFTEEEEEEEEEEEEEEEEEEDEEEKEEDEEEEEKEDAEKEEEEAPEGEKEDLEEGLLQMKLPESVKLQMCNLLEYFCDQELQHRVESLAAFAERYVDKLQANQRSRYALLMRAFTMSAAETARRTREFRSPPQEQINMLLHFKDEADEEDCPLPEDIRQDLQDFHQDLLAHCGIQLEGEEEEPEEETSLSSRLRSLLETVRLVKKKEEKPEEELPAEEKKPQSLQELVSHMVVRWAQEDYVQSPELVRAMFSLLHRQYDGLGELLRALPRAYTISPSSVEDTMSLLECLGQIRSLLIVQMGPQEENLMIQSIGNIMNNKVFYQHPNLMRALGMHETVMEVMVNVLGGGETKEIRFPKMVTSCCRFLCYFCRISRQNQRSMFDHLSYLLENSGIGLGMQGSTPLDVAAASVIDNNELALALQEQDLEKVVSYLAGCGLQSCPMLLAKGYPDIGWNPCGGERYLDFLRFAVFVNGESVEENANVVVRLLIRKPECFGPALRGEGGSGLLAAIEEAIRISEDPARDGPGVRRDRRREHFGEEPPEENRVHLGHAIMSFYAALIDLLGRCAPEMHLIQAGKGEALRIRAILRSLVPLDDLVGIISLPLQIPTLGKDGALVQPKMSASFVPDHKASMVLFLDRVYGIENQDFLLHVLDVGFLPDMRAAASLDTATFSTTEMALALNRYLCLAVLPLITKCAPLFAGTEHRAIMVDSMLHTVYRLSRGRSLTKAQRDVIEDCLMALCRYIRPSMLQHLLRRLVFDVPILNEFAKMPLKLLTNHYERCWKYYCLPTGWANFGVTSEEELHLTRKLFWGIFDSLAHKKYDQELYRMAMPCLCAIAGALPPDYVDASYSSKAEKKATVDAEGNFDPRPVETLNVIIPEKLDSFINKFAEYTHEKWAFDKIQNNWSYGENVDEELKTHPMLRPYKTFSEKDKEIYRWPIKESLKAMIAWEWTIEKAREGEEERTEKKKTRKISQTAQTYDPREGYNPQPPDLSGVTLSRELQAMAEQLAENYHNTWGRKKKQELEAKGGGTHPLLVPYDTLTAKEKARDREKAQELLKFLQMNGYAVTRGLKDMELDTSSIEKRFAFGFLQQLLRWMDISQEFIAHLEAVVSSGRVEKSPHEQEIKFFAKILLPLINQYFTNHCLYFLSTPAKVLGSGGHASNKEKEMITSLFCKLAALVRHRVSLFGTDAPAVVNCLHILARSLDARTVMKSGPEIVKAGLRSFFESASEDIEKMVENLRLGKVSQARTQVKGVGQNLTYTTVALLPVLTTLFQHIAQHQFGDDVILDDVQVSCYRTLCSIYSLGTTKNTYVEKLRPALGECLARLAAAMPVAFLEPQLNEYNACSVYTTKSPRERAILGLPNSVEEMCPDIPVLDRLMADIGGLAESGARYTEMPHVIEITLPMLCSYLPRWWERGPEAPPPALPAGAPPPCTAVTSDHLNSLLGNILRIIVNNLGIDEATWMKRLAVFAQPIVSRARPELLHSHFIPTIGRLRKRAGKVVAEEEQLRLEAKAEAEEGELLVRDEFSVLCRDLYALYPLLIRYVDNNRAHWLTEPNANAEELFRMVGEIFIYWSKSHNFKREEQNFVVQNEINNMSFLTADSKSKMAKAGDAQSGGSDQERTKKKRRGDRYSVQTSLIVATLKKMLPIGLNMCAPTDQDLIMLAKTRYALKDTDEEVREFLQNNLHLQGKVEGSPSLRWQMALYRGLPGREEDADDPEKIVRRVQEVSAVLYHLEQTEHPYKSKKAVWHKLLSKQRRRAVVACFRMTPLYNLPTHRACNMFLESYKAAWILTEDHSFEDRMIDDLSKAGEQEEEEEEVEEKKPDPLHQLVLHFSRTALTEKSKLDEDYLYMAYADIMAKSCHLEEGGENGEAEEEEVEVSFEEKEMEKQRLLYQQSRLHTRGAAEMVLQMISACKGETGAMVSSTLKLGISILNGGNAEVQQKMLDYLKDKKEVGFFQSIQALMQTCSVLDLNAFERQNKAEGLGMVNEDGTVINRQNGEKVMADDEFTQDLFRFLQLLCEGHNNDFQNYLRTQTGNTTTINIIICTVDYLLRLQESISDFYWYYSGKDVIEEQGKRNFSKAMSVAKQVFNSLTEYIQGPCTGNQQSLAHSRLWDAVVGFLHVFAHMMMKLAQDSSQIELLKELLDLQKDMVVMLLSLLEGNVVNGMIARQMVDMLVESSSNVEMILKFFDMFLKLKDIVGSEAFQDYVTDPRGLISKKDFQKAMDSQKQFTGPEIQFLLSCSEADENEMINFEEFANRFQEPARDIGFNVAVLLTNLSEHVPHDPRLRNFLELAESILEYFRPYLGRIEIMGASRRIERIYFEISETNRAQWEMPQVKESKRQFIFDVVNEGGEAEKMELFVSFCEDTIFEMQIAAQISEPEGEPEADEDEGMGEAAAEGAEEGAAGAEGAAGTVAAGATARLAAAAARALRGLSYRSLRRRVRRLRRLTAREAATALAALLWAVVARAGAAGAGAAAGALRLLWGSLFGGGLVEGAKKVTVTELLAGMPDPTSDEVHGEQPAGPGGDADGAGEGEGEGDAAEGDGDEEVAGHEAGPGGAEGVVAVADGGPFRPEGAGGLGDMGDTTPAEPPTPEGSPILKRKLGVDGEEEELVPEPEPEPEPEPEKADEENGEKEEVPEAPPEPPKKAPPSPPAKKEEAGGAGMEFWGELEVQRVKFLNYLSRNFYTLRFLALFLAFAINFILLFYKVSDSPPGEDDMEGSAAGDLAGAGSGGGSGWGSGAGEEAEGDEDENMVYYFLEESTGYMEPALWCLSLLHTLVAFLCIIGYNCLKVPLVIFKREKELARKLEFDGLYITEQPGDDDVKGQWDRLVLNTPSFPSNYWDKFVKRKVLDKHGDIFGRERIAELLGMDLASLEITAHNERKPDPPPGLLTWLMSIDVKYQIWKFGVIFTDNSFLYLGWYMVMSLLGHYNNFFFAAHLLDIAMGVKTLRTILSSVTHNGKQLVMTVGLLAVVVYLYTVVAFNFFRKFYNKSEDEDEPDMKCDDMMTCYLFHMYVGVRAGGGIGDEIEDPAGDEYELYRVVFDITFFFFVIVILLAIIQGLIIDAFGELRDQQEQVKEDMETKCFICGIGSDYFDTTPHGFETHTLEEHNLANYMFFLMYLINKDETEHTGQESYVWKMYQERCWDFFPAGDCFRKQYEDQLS

IC50 [1] [µM] | IC50 [2] [µM] | SMILES | Apoptotic cell death (% of the cells) ([3]; 5 hrs exposure) | Apoptotic cell death (% of the cells) ([3]; 7 hrs exposure) [%]
7.2 ± 0.55 | 0.16 ± 0.03 | Cl.Cl.Cl.Cl.Cl.Cl.N.N.N.N.N.N.N.N.N.N.N.N.N.N.[O-2].[O-2].[Ru+3].[Ru+3].[Ru+4] [RuR, ruthenium red, reference compound] | – | –
– | – | CN[C@@H]1C[C@H]2O[C@@](C)([C@@H]1OC)n1c3ccccc3c3c4c(c5c6ccccc6n2c5c31)C(=O)NC4 [STS, staurosporine, reference compound] | about 42% | ~76
